Ends that are not written are not given here.
Assays:
HL60 cells = test: HL60 cell viability assay (Annexin V FITC / PI flow cytometry); format: cell-based, human; settings: for EC50: 48 h; for cytotoxic activity compared with another peptide: HL60 cell viability, FIGS. 2-5, in words
Protocol: HL60 PML suspension cells were set at a density of 3.5×10^3 cells/well in 150 μL of RPMI+1.5% fetal bovine serum (FBS) in a 96 well dish. ST-3, reconstituted at a concentration of 10 mg/mL in 20 mM His, pH 7.5, was added to each well at a volume of 50 μL to a final concentration range of 0-80 μM. Cells were incubated with ST-3 for 48 hours at 37° C. Cell viability was quantified by flow cytometry using an Abcam Annexin V FITC apoptosis detection kit. Briefly, cells were washed with PBS and resuspended in 1× assay buffer containing Annexin V FITC and propidium iodide (PI). Annexin V detects apoptotic cells, and PI stains dead cells. After staining, apoptotic cells show green fluorescence, dead cells show red and green fluorescence, and live cells show little or no fluorescence. Cells were selected for analysis based on forward scatter (FSC) vs. side scatter (SSC), and analyzed by BD Accuri C6 Plus flow cytometer to detect Annexin V-FITC binding (Ex=488 nm; Em=530 nm) using FITC signal detector and PI staining by the phycoerythrin emission signal detector. Percentage of Annexin V^low and PI^low were quantified and presented as % Viability.
Lyophilized ST-3 or ST-3 with glycine (ST-4) or alanine (ST-5) substituted for cysteine at amino acid position 21 was freshly reconstituted in histidine buffer to a stock solution of 5 mg/mL and added to cells at a final concentration range of 0-40 μM. Cells were incubated with ATF5 peptide for 48 hours prior to quantification of cell viability.
(§1) ST-13 was further examined in various human cancer cell lines, as was a second retro-inverso variant, ST-14. Suspension cells (HL60, AML14, or SET2) were set at a density of 3.5×10^3 cells/well in 150 μL of RPMI+1.5% fetal bovine serum (FBS) in a tissue culture-treated 96 well dish. ATF5 peptide, reconstituted at a concentration of 10 mg/mL in 20 mM His, pH 7.5, was added to each well at a volume of 50 μL to a final concentration range of 0-80 μM. Cells were incubated with peptide for 48 hours at 37° C. Cell viability was quantified by flow cytometry using an Abcam Annexin V FITC apoptosis detection kit. Briefly, cells were washed with PBS and resuspended in 1× assay buffer containing Annexin V FITC and propidium iodide (PI). Cells were analyzed by BD Accuri C6 Plus flow cytometer to detect Annexin V-FITC binding (Ex=488 nm; Em=530 nm) using FITC signal detector, and to detect PI staining using the phycoerythrin emission signal detector. Percentage of Annexin V^low and PI^low were quantified and presented as % Viability. EC50 values were calculated using GraphPad Prism v.7 XML.

A375 cells = format: cell-based, human
Protocol: (§2) Additionally, adherent A375, MCF7, U251, DU145, U87, and A549 cells were set at a density of 3.5×10^3 cells/well in 200 μL of media on day −1. On day 0, media was removed and replenished with 150 μL of fresh media, and cells were treated with ATF5 peptide as described. Following a 48-hour incubation at 37° C., floating cells were collected, adherent cells were washed with Dulbecco's Phosphate Buffered Saline (DPBS), dissociated from the dish with 50 μL 2.5% trypsin at RT, and combined with floating cells. Cell viability was determined as described above for suspension cells or by MTT assay (MCF7 cells). Alternatively, cells were gently removed from the cell culture plate following trypsinization with 2.5% trypsin, and cell viability was quantified by flow cytometry using an Abcam Annexin V FITC apoptosis detection kit, as described above.

[1] = tested on: wide range of tumor cell types; test: Cytotoxic activity in various human cancer cell lines; format: cell-based; settings: in words; FIGS. 6A-6E, 7A-7E
Protocol: as §1, with “Briefly, cells were washed with PBS and resuspended in 1× assay buffer containing Annexin V FITC and propidium iodide (PI).” left out, “XML. […] Cell viability was determined as described above for suspension cells or by MTT assay (MCF7 cells). Alternatively, cells were gently removed from the cell culture plate following trypsinization with 2.5% trypsin, and cell viability was quantified by flow cytometry using an Abcam Annexin V FITC apoptosis detection kit, as described above.” for “XML.”

MCF7 cells = format: cell-based, human
Protocol: as §2

AML14 cells = format: cell-based, human
Protocol: as §1

SET2 cells = format: cell-based, human
Protocol: as §1

Molecule	EC50 (HL60 cells) [µM]	cytotoxic activity compared with another peptide (HL60 cells)	further results
RQIKIWFQNRRMKWKKLEGECQGLEARNRELKERAEAV [ST-6]	11.2	comparable activity to ST-3	
RQIKIWFQNRRMKWKKLEGRCQGLRAENRELEERAESV [ST-9]	2	significantly increased over that of ST-3	
RQIKIWFQNRRMKWKKLEGRCQGLRAELRELEERAEAV [ST-10]	2.2	comparable to that of ST-9	
CC[C@@H](C)[C@@H](NC(=O)[C@@H](CCCCN)NC(=O)[C@H](NC(=O)[C@@H](Cc1c[nH]c2ccccc12)NC(=O)[C@@H](Cc1ccccc1)NC(=O)[C@@H](CCC(N)=O)NC(=O)[C@@H](CC(N)=O)NC(=O)[C@@H](CCCNC(=N)N)NC(=O)[C@@H](CCCNC(=N)N)NC(=O)[C@@H](CCSC)NC(=O)[C@@H](CCCCN)NC(=O)[C@@H](Cc1c[nH]c2ccccc12)NC(=O)[C@@H](CCCCN)NC(=O)[C@@H](CCCCN)NC(=O)[C@@H](CC(C)C)NC(=O)[C@@H](CCC(=O)O)NC(=O)CNC(=O)[C@@H](CCCNC(=N)N)NC(=O)[C@@H](C)NC(=O)[C@@H](CCC(N)=O)NC(=O)CNC(=O)[C@@H](CC(C)C)NC(=O)[C@@H](CCCNC(=N)N)NC(=O)[C@@H](C)NC(=O)[C@@H](CCC(=O)O)NC(=O)[C@@H](CC(C)C)NC(=O)[C@@H](CCCNC(=N)N)NC(=O)[C@@H](CCC(=O)O)NC(=O)[C@@H](CC(C)C)NC(=O)[C@@H](CCC(=O)O)NC(=O)[C@@H](CCC(=O)O)NC(=O)[C@@H](CCCNC(=N)N)NC(=O)[C@@H](C)NC(=O)[C@@H](CCC(=O)O)NC(=O)[C@@H](C)NC(=O)[C@H](N)C(C)C)[C@H](C)CC)C(=O)N[C@H](CCC(N)=O)C(=O)N[C@H](CCCNC(=N)N)C(=O)O [ST-13]	4.8		EC50 (A375 cells): 1.4 µM; cytotoxic activity in tumor cell types [1]: significant cytotoxic activity
RQIKIWFQNRRMKWKKLEGRAQGLRAELRELEERAEAV [ST-11]	4.2	improved cytotoxic activity over ST-3	
RQIKIWFQNRRMKWKKLEGECQGLEARNRELKERAESV [ST-3, reference compound]			EC50 (MCF7 cells): 52.9 µM; EC50 (A375 cells): 21.8 µM; EC50 (AML14 cells): 29.6 µM; EC50 (SET2 cells): 98.2 µM
RQIKIWFQNRRMKWKKLEGEGQGLEARNRELKERAESV [ST-4]	~35	attenuated but not ablated	
RQIKIWFQNRRMKWKKLEGEAQGLEARNRELKERAESV [ST-5]	~38	attenuated but not ablated	

Reference: US10525100B2, “ATF5 peptide variants and uses thereof” (Sapience Therapeutics, Inc., priority 2018, dated 2020)
